Test results taken from US20230114728A1 (Venatorx Pharmaceuticals, Inc., priority 2019, published 2023).
≈ marks a conversion by molar mass, not a printed value.

Legend:
Format in all cases: cell-based
A. baumannii ATCC 19606 = experiment: Broth microdilution MIC in CAMHB; conditions: Acinetobacter baumannii, ATCC19606; MHB; read-out: Minimum Inhibitory Concentration, A. baumannii ATCC 19606
How it was run: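 Lowest compound concentration with no visible growth after 16-20 h at 37 °C defines MIC. Plates of 2-fold serial dilutions in cation-adjusted Mueller Hinton broth received 2-8×10^5 CFU/mL of exponentially grown cells, per CLSI methods; panel spans reference, hyper-permeable and efflux-pump-deleted strains.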

E. coli 901C = experiment: Broth microdilution MIC in CAMHB; conditions: Escherichia coli; E. coli 901C (hyper-permeable); MHB; read-out: Minimum Inhibitory Concentration, E. coli 901C
How it was run: (§1)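 Standard CLSI-style microdilution in cation-adjusted Mueller Hinton broth, 2-fold dilution series, incubated 16-20 h at 37° C; endpoint was visual absence of growth.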

E. coli AG100A = experiment: Broth microdilution MIC in CAMHB; conditions: Escherichia coli, read-out: Minimum Inhibitory Concentration, E. coli AG100A
How it was run: as §1

E. coli AG100 = experiment: Broth microdilution MIC in CAMHB; conditions: Escherichia coli; E. coli AG100 (wild-type parent); MHB; read-out: Minimum Inhibitory Concentration, E. coli AG100
How it was run: as §1

E. coli ATCC 25922 = experiment: Broth microdilution MIC in CAMHB; conditions: Escherichia coli, ATCC25922; E. coli ATCC 25922; MHB; read-out: Minimum Inhibitory Concentration, E. coli 25922
How it was run: as §1

E. coli D22 = experiment: Broth microdilution MIC in CAMHB; conditions: Escherichia coli; E. coli D22 (hyper-permeable); MHB; read-out: Minimum Inhibitory Concentration, E. coli D22
How it was run: as §1

[1] = tested on: K. pneumoniae 848844 producing SHV-11 and KPC-2; experiment: Broth microdilution MIC in CAMHB; conditions: Klebsiella pneumoniae, read-out: Minimum Inhibitory Concentration, K. pneumoniae 848844
How it was run: as §1

[2] = tested on: K. pneumoniae SI-117 producing VIM-1; experiment: Broth microdilution MIC in CAMHB; conditions: Klebsiella pneumoniae, read-out: Minimum Inhibitory Concentration, K. pneumoniae SI-117
How it was run: as §1

[3] = tested on: K. pneumoniae UMM producing SHV-5 and KPC-2; experiment: Broth microdilution MIC in CAMHB; conditions: Klebsiella pneumoniae, read-out: Minimum Inhibitory Concentration, K. pneumoniae UMM
How it was run: as §1

[4] = tested on: P. aeruginosa (ΔmexAB-oprM); experiment: Broth microdilution MIC in CAMHB; conditions: Pseudomonas aeruginosa, read-out: Minimum Inhibitory Concentration, P. aeruginosa ΔmexAB-OprM
How it was run: as §1

P. aeruginosa ATCC 27853 = experiment: Broth microdilution MIC in CAMHB; conditions: Pseudomonas aeruginosa, ATCC27853; MHB; read-out: Minimum Inhibitory Concentration, P. aeruginosa ATCC 27853
How it was run: as §1

P. aeruginosa ATCC 35151 = experiment: Broth microdilution MIC in CAMHB; conditions: Pseudomonas aeruginosa, ATCC35151; MHB; hyper-permeable strain; read-out: Minimum Inhibitory Concentration, P. aeruginosa ATCC 35151
How it was run: as §1

N. gonorrhoeae WHO L = experiment: Liquid broth MIC in Fastidious broth; conditions: Neisseria gonorrhoeae; N. gonorrhoeae strain WHO L; Fastidious broth; read-out: Minimum Inhibitory Concentration, N. gonorrhoeae WHO L
How it was run: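 Colonies were swabbed from chocolate agar after 24 h growth and standardised by optical density at 600 nm. Compounds were serially diluted twofold in Fastidious broth, and bacteria added to give 5×10^5 CFU/mL. After about 24 h at 36 °C in 5% CO2, the lowest concentration allowing under 10% growth was taken as MIC.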

| Structure (SMILES) | MIC (A. baumannii ATCC 19606) [µg/mL] | MIC (E. coli 901C) [µg/mL] | MIC (E. coli AG100A) [µg/mL] | MIC (E. coli AG100) [µg/mL] | MIC (E. coli ATCC 25922) [µg/mL] | MIC (E. coli D22) [µg/mL] | MIC [1] [µg/mL] | MIC [2] [µg/mL] | MIC [3] [µg/mL] | MIC [4] [µg/mL] | MIC (P. aeruginosa ATCC 27853) [µg/mL] | MIC (P. aeruginosa ATCC 35151) [µg/mL] | MIC (N. gonorrhoeae WHO L) [µg/mL] |
| --- | --- | --- | --- | --- | --- | --- | --- | --- | --- | --- | --- | --- | --- |
| CCN1CCN(C(=O)N[C@@H](C(=O)N[C@H]2Cc3cccc(C(=O)O)c3OB2O)c2ccc(C(=O)O)c(F)c2)C(=O)C1=O (single isomer, unassigned) [Example 146] | 32 to 64 (≈ 56.1 to 112 µM) | < 0.25 | 2 to 4 (≈ 3.51 to 7.01 µM) | 32 to 64 (≈ 56.1 to 112 µM) | 32 to 64 (≈ 56.1 to 112 µM) | 2 to 4 (≈ 3.51 to 7.01 µM) | > 128 | > 128 | 32 to 64 (≈ 56.1 to 112 µM) | 8 to 16 (≈ 14 to 28.1 µM) | 32 to 64 (≈ 56.1 to 112 µM) | < 0.25 | 4 to 8 (≈ 7.01 to 14 µM) |
| CCN1CCN(C(=O)N[C@H](C(=O)N[C@H]2Cc3cccc(C(=O)O)c3OB2O)c2ccc(C(=O)O)c(F)c2)C(=O)C1=O (single isomer, unassigned) [Example 147] | > 128 | < 0.25 | 2 to 4 (≈ 3.51 to 7.01 µM) | 32 to 64 (≈ 56.1 to 112 µM) | 32 to 64 (≈ 56.1 to 112 µM) | 2 to 4 (≈ 3.51 to 7.01 µM) | > 128 | > 128 | 32 to 64 (≈ 56.1 to 112 µM) | 8 to 16 (≈ 14 to 28.1 µM) | > 128 | < 0.25 | 4 to 8 (≈ 7.01 to 14 µM) |
| CCN1CCN(C(=O)N[C@@H](C(=O)N[C@H]2Cc3cccc(C(=O)O)c3OB2O)c2cc(F)c(C(=O)O)cc2Cl)C(=O)C1=O (single isomer, unassigned) [Example 148] | > 128 | < 0.25 | 8 to 16 (≈ 13.2 to 26.5 µM) | 32 to 64 (≈ 52.9 to 106 µM) | > 128 | 2 to 4 (≈ 3.31 to 6.61 µM) | > 128 | > 128 | 32 to 64 (≈ 52.9 to 106 µM) | 8 to 16 (≈ 13.2 to 26.5 µM) | > 128 | < 0.25 | > 64 |
| CCN1CCN(C(=O)N[C@H](C(=O)N[C@H]2Cc3cccc(C(=O)O)c3OB2O)c2cc(F)c(C(=O)O)cc2Cl)C(=O)C1=O (single isomer, unassigned) [Example 149] | > 128 | 0.5 to 1 (≈ 0.827 to 1.65 µM) | 32 to 64 (≈ 52.9 to 106 µM) | > 128 | > 128 | 8 to 16 (≈ 13.2 to 26.5 µM) | > 128 | > 128 | > 128 | > 128 | > 128 | 2 to 4 (≈ 3.31 to 6.61 µM) | > 64 |
| CCN1CCN(C(=O)N[C@@H](C(=O)N[C@H]2Cc3cccc(C(=O)O)c3OB2O)c2ccc(C(=O)O)cc2Cl)C(=O)C1=O (single isomer, unassigned) [Example 151] | > 128 | < 0.25 | 8 to 16 (≈ 13.6 to 27.3 µM) | 32 to 64 (≈ 54.5 to 109 µM) | > 128 | 2 to 4 (≈ 3.41 to 6.82 µM) | > 128 | > 128 | > 128 | 8 to 16 (≈ 13.6 to 27.3 µM) | > 128 | 0.5 to 1 (≈ 0.852 to 1.7 µM) | 16 to 32 (≈ 27.3 to 54.5 µM) |
| CCN1CCN(C(=O)N[C@H](C(=O)N[C@H]2Cc3cccc(C(=O)O)c3OB2O)c2ccc(C(=O)O)cc2Cl)C(=O)C1=O (single isomer, unassigned) [Example 152] | > 128 | 0.5 to 1 (≈ 0.852 to 1.7 µM) | 32 to 64 (≈ 54.5 to 109 µM) | > 128 | > 128 | 8 to 16 (≈ 13.6 to 27.3 µM) | > 128 | > 128 | > 128 | 32 to 64 (≈ 54.5 to 109 µM) | > 128 | 0.5 to 1 (≈ 0.852 to 1.7 µM) | > 64 |
| CCN1CCN(C(=O)N[C@H](C(=O)N[C@H]2Cc3cccc(C(=O)O)c3OB2O)c2ccc(C(=O)O)c(Cl)c2)C(=O)C1=O (single isomer, unassigned) [Example 155] | > 128 | < 0.25 | 8 to 16 (≈ 13.6 to 27.3 µM) | 32 to 64 (≈ 54.5 to 109 µM) | > 128 | 2 to 4 (≈ 3.41 to 6.82 µM) | > 128 | > 128 | > 128 | 8 to 16 (≈ 13.6 to 27.3 µM) | > 128 | 0.5 to 1 (≈ 0.852 to 1.7 µM) | 16 to 32 (≈ 27.3 to 54.5 µM) |
| NCCN1CCN(C(=O)N[C@H](C(=O)N[C@H]2Cc3cccc(C(=O)O)c3OB2O)c2cc(F)c(O)c(F)c2)C(=O)C1=O (single isomer, unassigned) [Example 158] | > 128 | 2 to 4 (≈ 3.48 to 6.95 µM) | 8 to 16 (≈ 13.9 to 27.8 µM) | > 128 | > 128 | 8 to 16 (≈ 13.9 to 27.8 µM) | > 128 | > 128 | > 128 | 32 to 64 (≈ 55.6 to 111 µM) | > 128 | 0.5 to 1 (≈ 0.869 to 1.74 µM) | > 64 |
| NCCN1CCN(C(=O)N[C@@H](C(=O)N[C@H]2Cc3cccc(C(=O)O)c3OB2O)c2cc(F)c(O)c(F)c2)C(=O)C1=O (single isomer, unassigned) [Example 159] | > 128 | 0.5 to 1 (≈ 0.869 to 1.74 µM) | 2 to 4 (≈ 3.48 to 6.95 µM) | 8 to 16 (≈ 13.9 to 27.8 µM) | 8 to 16 (≈ 13.9 to 27.8 µM) | 2 to 4 (≈ 3.48 to 6.95 µM) | 32 to 64 (≈ 55.6 to 111 µM) | 32 to 64 (≈ 55.6 to 111 µM) | 8 to 16 (≈ 13.9 to 27.8 µM) | 2 to 4 (≈ 3.48 to 6.95 µM) | 32 to 64 (≈ 55.6 to 111 µM) | < 0.25 | > 64 |
| NCCN1CCN(C(=O)N[C@H](C(=O)N[C@H]2Cc3cccc(C(=O)O)c3OB2O)c2cc(Cl)c(O)c(Cl)c2)C(=O)C1=O (single isomer, unassigned) [Example 165] | > 128 | 2 to 4 (≈ 3.29 to 6.58 µM) | 8 to 16 (≈ 13.2 to 26.3 µM) | > 128 | > 128 | 32 to 64 (≈ 52.6 to 105 µM) | > 128 | > 128 | > 128 | 8 to 16 (≈ 13.2 to 26.3 µM) | > 128 | 0.5 to 1 (≈ 0.822 to 1.64 µM) | > 64 |
| NCCN1CCN(C(=O)N[C@@H](C(=O)N[C@H]2Cc3cccc(C(=O)O)c3OB2O)c2cc(Cl)c(O)c(Cl)c2)C(=O)C1=O (single isomer, unassigned) [Example 166] | > 128 | < 0.25 | 0.5 to 1 (≈ 0.822 to 1.64 µM) | 8 to 16 (≈ 13.2 to 26.3 µM) | 8 to 16 (≈ 13.2 to 26.3 µM) | 2 to 4 (≈ 3.29 to 6.58 µM) | 32 to 64 (≈ 52.6 to 105 µM) | 32 to 64 (≈ 52.6 to 105 µM) | 32 to 64 (≈ 52.6 to 105 µM) | 2 to 4 (≈ 3.29 to 6.58 µM) | 8 to 16 (≈ 13.2 to 26.3 µM) | < 0.25 | > 64 |
